Reference: publication PMC10609854 (Pharmaceuticals, 2023)
“And” between values parts separate entries of the source, which are not always exact repeats. Equal entries are not always repeated.

Legend:
[1] = test system: spontaneous locomotor activity; assay: spontaneous locomotor activity; type: in vivo; conditions: mice
Description: The mean number of light-beam crossings in the vehicle-treated animals was 1.51 ± 0.13 x 103, measured during the 30 min-long period of observation. The test compound at a dose of 30 mg/kg […]
effect [F(2,21) = 4.43, p < 0.05] (Figure S1).
Figure S1. […] The test compound or vehicle (1% solution of Tween 80) were administered 30 min intraperitoneally (i.p.) before the beginning of the test. The results are presented as bar plots showing the mean ± SEM. Statistical analysis: one-way ANOVA followed by Dunnett’s post hoc test, * p < 0.05, n = 8 mice per group.
time spent on the rotarod apparatus was 60 seconds for each control mouse. The same effect was observed in the E153- treated mice. […]
impaired the motor coordination of mice at any tested speed [F(2,15) = 0.41, p=0.67] (Figure S2). We

[2] = test system: hMAO B; parameters: method as in PMID 34208297; conditions: cited from earlier work
[3] = test system: (R)-(-)-α-methylhistamine-induced dipsogenia; parameters: method as in PMID 28797771; conditions: rats; cited from earlier work
[4] = test system: carrageenan-induced mechanical hyperalgesia; assay: carrageenan-induced mechanical hyperalgesia (Randall-Selitto); type: in vivo; conditions: rats, 3 h after carrageenan, vehicle 87.8%
Description: (§1) The acute, local inflammation and paw edema was induced by subplantar injection of 0.1 mL of 1% carrageenan (made in PBS) into the rat right hind paw. The paw volume was measured using the dislocation of the water column of the plethysmometer (Plethysmometr 7140, Ugo Basile) before and at 1, 2, and 3 h after subplantar injection of carrageenan.
Furthermore, to assess the heightened sensitivity to mechanical stimuli, we employed the pain pressure threshold test. This involved applying increasing pressure to the dorsal surface of the right hind paw using an automated gauge (Analgesy Meter 37215, Ugo Basile, Gemonio, Italy), following the method outlined by Randall and Selitto. The force’s intensity, measured in grams, was recorded when the paw was withdrawn (withdrawal threshold). For each animal, withdrawal thresholds were recorded both prior to the administration of carrageenan and three hours afterward. The results were expressed as a percentage of the initial reaction, with the nociceptive response before carrageenan administration considered as the baseline (100% response).

[5] = molecular target: human histamine H4 receptor; conditions: read-out: Ki, human histamine H4 receptor; cited from earlier work
[6] = molecular target: T1, human sigma 1 receptor (Homo sapiens, UniProt Q99720); assay: radioligand binding, human sigma 1 receptor ([3H](+)pentazocine, Jurkat cells)
T1 construct: [^3H](+)pentazocine (agonist) in Jurkat cells; host or cells: Jurkat cells
T1 sequence (Q99720 whole entry): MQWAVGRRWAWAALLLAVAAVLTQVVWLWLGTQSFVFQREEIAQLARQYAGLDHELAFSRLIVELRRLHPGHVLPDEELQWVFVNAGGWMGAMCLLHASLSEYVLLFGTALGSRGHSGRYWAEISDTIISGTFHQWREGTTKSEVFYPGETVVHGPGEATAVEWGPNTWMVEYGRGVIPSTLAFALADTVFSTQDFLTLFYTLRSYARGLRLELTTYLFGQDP

[7] = test system: eqBuChE; parameters: method as in PMID 34208297; conditions: cited from earlier work
[8] = molecular target: T2, human sigma 2 receptor (Homo sapiens, UniProt Q5BJF2); assay: radioligand binding, human sigma 2 receptor ([3H]DTG, Jurkat cells); conditions: [3H]DTG with unlabeled (+)-pentazocine
T2 construct: host or cells: Jurkat cells
T2 sequence (Q5BJF2 whole entry): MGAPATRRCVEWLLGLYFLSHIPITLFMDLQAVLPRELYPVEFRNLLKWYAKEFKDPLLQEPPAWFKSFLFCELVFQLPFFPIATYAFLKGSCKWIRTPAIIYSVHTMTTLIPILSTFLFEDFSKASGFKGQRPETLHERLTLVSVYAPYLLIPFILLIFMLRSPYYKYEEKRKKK

[9] = molecular target: T3, human μ opioid receptor (Homo sapiens, UniProt P35372); assay: radioligand binding, human opioid μ receptor ([3H]DAMGO, HEK293 cells)
T3 construct: host or cells: HEK293 cells
T3 sequence (P35372 whole entry): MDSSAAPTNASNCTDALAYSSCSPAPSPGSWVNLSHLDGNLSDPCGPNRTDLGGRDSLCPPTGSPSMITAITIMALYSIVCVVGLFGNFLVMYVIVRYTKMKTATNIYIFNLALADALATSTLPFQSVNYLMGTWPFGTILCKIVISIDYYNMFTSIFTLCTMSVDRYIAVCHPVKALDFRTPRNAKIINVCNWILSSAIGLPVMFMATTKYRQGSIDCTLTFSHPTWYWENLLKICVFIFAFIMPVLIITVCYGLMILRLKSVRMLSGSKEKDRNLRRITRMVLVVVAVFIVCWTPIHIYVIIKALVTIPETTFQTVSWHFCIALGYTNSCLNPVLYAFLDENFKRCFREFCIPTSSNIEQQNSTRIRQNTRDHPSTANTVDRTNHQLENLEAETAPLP

[10] = molecular target: human histamine H1 receptor; parameters: method as in PMID 28797771; conditions: cited from earlier work
[11] = molecular target: human histamine H3 receptor; parameters: method as in PMID 28797771; conditions: [3H]Nα-methylhistamine in HEK293 cells; cited from earlier work
[12] = test system: OXPT-induced tactile allodynia; assay: oxaliplatin-induced neuropathic pain, von Frey test; type: in vivo; conditions: mice
Description: Neuropathy was induced by administering a single dose (10 mg/kg) of Oxaliplatin (OXPT) dissolved in a 5% glucose solution (Polfa Kutno, Poland). To assess the response to mechanical stimuli, the von Frey test was carried with application of the electronic von Frey unit (Bioseb, France). The apparatus contained a single flexible filament, which was used to apply increasing force ranging from 0 to 10 g to the plantar surface of the mouse’s hind paw. The crossing of pain threshold led to the paw withdrawal. The mechanical pressure that evoked the nocifensive response was subsequently recorded. The measurement was performed before the OXPT administration and 7 days afterwards. The compounds were administrated to the animals with developed mechanical allodynia observed as a statistically significant decrease in pain threshold. On the day of the experiment, each mouse was placed in an observation chamber with a wire mesh bottom and was allowed to habituate for 1 h. After the habituation period, the mouse pain threshold was tested 3 times alternately with at least a 30 s gap between each measurement. The mean of these three consecutive measurements was taken as a baseline value. The mice with tactile allodynia were i.p. pretreated with the tested compound or their combinations, and 30 min later the animals were tested again according to the same procedure.

[13] = test system: carrageenan-induced edema; assay: carrageenan-induced paw edema; type: in vivo; conditions: rats, 30 mg/kg
Description: as §1

[14] = test system: formalin-induced pain; assay: formalin test; type: in vivo, mice
Description: The mice received an intraperitoneal (i.p.) injection of either the test compound or a control solution. After 30 min, a 20 μL injection of a 2.5% formalin solution was administered into the right hind paw. Right after the formalin injection, the animals were individually placed into glass containers and observed for the following 30 min. During specific time intervals (0–5 min, referred to as Phase I, and 15–30 min, referred to as Phase II, post-formalin injection), the time spent by the animals licking or biting the injected paw was recorded..

## O=C(O)C(=O)O.c1ccc(-c2ccc(OCCCCCN3CCCCCC3)cc2)cc1 [Compound E153, 1-(5-(4-Phenylphenoxy)pentyl)azepane hydrogen oxalate]
[1]; 15 mg/kg i.p.
  spontaneous locomotor activity (light-beam crossings, 30 min): no effect
[1]; 30 mg/kg i.p.
  spontaneous locomotor activity (light-beam crossings, 30 min): significantly altered
[2]
  IC50: 240 nM
[3]
  ED50, (R)-(-)-α-methylhistamine-induced dipsogenia: 1.75 mg/kg
[4]; 15 mg/kg
  mechanical pain threshold, % of baseline: 112.5%
[4]; 30 mg/kg
  mechanical pain threshold, % of baseline: 111.8%
[5]
  Ki: 22 µM
[6]
  IC50: 2.4 nM
  Ki: 1.2 nM
[6]; at 1 μM
  inhibition at 1 µM: 95%
[7]
  IC50: 590 nM
[8]
  inhibition at 1 µM: 102%
[9]
  inhibition at 1 µM: 11%
[10]
  Ki: 1270 nM
[11]
  Ki: 34 nM and 33.9 nM
[12]; 10 mg/kg i.p., early phase (3 h after OXPT), OXPT alone 60.13%
  von Frey paw withdrawal force, % of baseline: 71.5%
[12]; 10 mg/kg i.p., late phase (7 days after OXPT)
  reversal of the effect of OXPT (von Frey): not in late phase
[12]; 15 mg/kg i.p., early phase (3 h), OXPT alone 60.5%
  von Frey paw withdrawal force, % of baseline: 80.0%
[12]; 15 mg/kg i.p., late phase (7 days), OXPT alone 57.4%
  von Frey paw withdrawal force, % of baseline: 79.4%
[12]; 30 mg/kg i.p., early phase (3 h), OXPT alone 57.9%
  von Frey paw withdrawal force, % of baseline: 97.9%
[12]; 30 mg/kg i.p., late phase (7 days), OXPT alone 60.6%
  von Frey paw withdrawal force, % of baseline: 87.9%
[13]; 1 h after carrageenan, vehicle 51.1%
  paw volume increase, carrageenan edema: 27.1%
[13]; 2 h after carrageenan, vehicle 102.4%
  paw volume increase, carrageenan edema: 45.4%
[13]; 3 h after carrageenan, vehicle 123.5%
  paw volume increase, carrageenan edema: 42.6%
[14]; mice, 10, 15 and 30 mg/kg i.p., 0–5 min after formalin
  duration of the nociceptive response, acute phase of the formalin test: did not significantly affect
[14]; mice, all doses tested (10, 15 and 30 mg/kg i.p.), 15–30 min after formalin
  paw licking or biting behavior, late phase of the formalin test: significantly attenuated
